From patent publication US9802895B2, “Indole and benzimidazolecarboxamides as insecticides and acaricides” (BAYER CROPSCIENCE AKTIENGESELLSCHAFT, priority 2014, dated 2017)

Tests used:
[1] = system: caterpillars of the armyworm (Spodoptera frugiperda); test: Spodoptera frugiperda spray test (SPODFR); assay type: in vivo; conditions: for efficacy: 100 g/ha, spray, after 7 days
Protocol: Spodoptera frugiperda—Spray Test (SPODFR) Solvent: 78.0 parts by weight of acetone • • 1.5 parts by weight of dimethylformamide Emulsifier: alkylaryl polyglycol ether To produce a suitable active compound formulation, 1 part by weight of active compound is dissolved using the specified parts by weight of solvent and made up with water containing an emulsifier concentration of 1000 ppm until the desired concentration is attained. To produce further test concentrations, the preparation is diluted with emulsifier-containing water. Leaf discs of maize (Zea mays) are sprayed with an active compound formulation of the desired concentration and, after drying, populated with caterpillars of the armyworm (Spodoptera frugiperda). After 7 days, the efficacy in % is determined 100% means that all the caterpillars have been killed; 0% means that no caterpillars have been killed. Spodoptera frugiperda—Spray Test (SPODFR) Solvent: 78.0 parts by weight of acetone • • 1.5 parts by weight of dimethylformamide Emulsifier: alkylaryl polyglycol ether To produce a suitable active compound formulation, 1 part by weight of active compound is dissolved using the specified parts by weight of solvent and made up with water containing an emulsifier concentration of 1000 ppm until the desired concentration is attained. To produce further test concentrations, the preparation is diluted with emulsifier-containing water. Leaf discs of maize (Zea mays) are sprayed with an active compound formulation of the desired concentration and, after drying, populated with caterpillars of the armyworm (Spodoptera frugiperda). After the desired period of time, the efficacy in % is determined. 100% means that all the caterpillars have been killed; 0% means that no caterpillars have been killed.

[2] = log P by HPLC (EEC directive 79/831 Annex V.A8); assay type: physicochemical; conditions: 43° C., acidic range pH 2.7; for log P: HPLC, reversed-phase column (C18)
Protocol: a) The determination of the M^+ by LC-MS in the acidic range is effected at pH 2.7, acetonitrile (contains 0.1% formic acid) and water as eluents; linear gradient from 10% acetonitrile to 95% acetonitrile, instrument: Agilent 1100 LC system, Agilent MSD system, HTS PAL. The log P values reported in the tables and Preparation Examples above were determined in accordance with EEC directive 79/831 Annex V.A8 by HPLC (High Performance Liquid Chromatography) using a reversed-phase column (C18). Temperature 43° C. The calibration is effected with unbranched alkan-2-ones (having 3 to 16 carbon atoms), for which the logP values are known.

[3] = system: larvae of the mustard beetle (Phaedon cochleariae); test: Phaedon cochleariae spray test (PHAECO); assay type: in vivo; conditions: after 7 days
Protocol: Phaedon cochleariae—Spray Test (PHAECO)
(§1) Solvent: 78.0 parts by weight of acetone • • 1.5 parts by weight of dimethylformamide
(§2) Emulsifier: alkylaryl polyglycol ether
(§3) To produce a suitable active compound formulation, 1 part by weight of active compound is dissolved using the specified parts by weight of solvent and made up with water containing an emulsifier concentration of 1000 ppm until the desired concentration is attained. To produce further test concentrations, the preparation is diluted with emulsifier-containing water.
After 7 days, the efficacy in % is determined. 100% means that all the beetle larvae have been killed; 0% means that no beetle larvae have been killed.

[4] = system: greenhouse red spider mite (Tetranychus urticae); test: Tetranychus urticae spray test, OP-resistant (TETRUR); assay type: in vivo; conditions: 100 g/ha, spray, after 6 days
Protocol: Tetranychus urticae—Spray Test, OP-Resistant (TETRUR)
as §1, §2, §3
Discs of bean leaves (Phaseolus vulgaris) infested by all stages of the greenhouse red spider mite (Tetranychus urticae) are sprayed with an active compound formulation of the desired concentration.
After 6 days, the efficacy in % is determined 100% means that all the spider mites have been killed; 0% means that none of the spider mites have been killed.
Tetranychus urticae—Spray Test; OP-Resistant (TETRUR)
After the desired period of time, the efficacy in % is determined 100% means that all the spider mites have been killed; 0% means that none of the spider mites have been killed.

[5] = system: adult cat fleas (Ctenocephalides felis); test: Ctenocephalides felis oral test (CTECFE); assay type: in vivo; conditions: 100 ppm, oral in cattle blood, after 2 days
Protocol: Ctenocephalides felis-Oral Test ([…]) Solvent: dimethyl sulphoxide To produce a suitable active compound formulation, 10 mg of active compound are mixed with 0.5 ml of dimethyl sulphoxide. Dilution with citrated cattle blood gives the desired concentration. About 20 unfed adult cat fleas (Ctenocephalides felis) are placed into a chamber which is closed at the top and bottom with gauze. A metal cylinder whose bottom end is closed with parafilm is placed onto the chamber. The cylinder contains the blood/active compound preparation, which can be imbibed by the fleas through the parafilm membrane. After 2 days, the kill in % is determined 100% means that all of the fleas have been killed; 0% means that none of the fleas have been killed.

[6] = system: adult houseflies (Musca domestica); test: Musca domestica test (MUSCDO); assay type: in vivo; conditions: 100 ppm, after 2 days
Protocol: Musca domestica Test (MUSCDO) Solvent: dimethyl sulphoxide To produce a suitable active compound formulation, 10 mg of active compound are mixed with 0.5 ml of dimethyl sulphoxide, and the concentrate is diluted with water to the desired concentration. Vessels containing a sponge treated with sugar solution and the active compound preparation of the desired concentration are populated with 10 adult houseflies (Musca domestica). After 2 days, the kill in % is determined. 100% means that all of the flies have been killed; 0% means that none of the flies have been killed.

[7] = system: L1 larvae of the Australian sheep blowfly (Lucilia cuprina); test: Lucilia cuprina test (LUCICU); assay type: in vivo; conditions: 100 ppm, after 2 days
Protocol: Lucilia cuprina Test (LUCICU) Solvent: dimethyl sulphoxide To produce a suitable active compound formulation, 10 mg of active compound are mixed with 0.5 ml of dimethyl sulphoxide, and the concentrate is diluted with water to the desired concentration. About 20 L1 larvae of the Australian sheep blowfly (Lucilia cuprina) are transferred into a test vessel containing minced horsemeat and the active compound preparation of the desired concentration. After 2 days, the kill in % is determined 100% means that all the larvae have been killed; 0% means that none of the larvae have been killed.

[8] = system: engorged adult female cattle ticks (Boophilus microplus); test: Boophilus microplus injection test (BOOPMI inj); assay type: in vivo; conditions: assessed after 7 days
Protocol: Boophilus microplus Injection Test (BOOPMI inj) Solvent: dimethyl sulphoxide To produce a suitable active compound formulation, 10 mg of active compound are mixed with 0.5 ml of solvent and the concentrate is diluted with solvent to the desired concentration. 1 μl of the active compound solution is injected into the abdomen of 5 engorged adult female cattle ticks (Boophilus microplus). The animals are transferred into dishes and kept in a climate-controlled room. The efficacy is assessed after 7 days by laying of fertile eggs. Eggs which are not visibly fertile are stored in a climate-controlled cabinet until the larvae hatch after about 42 days. An efficacy of 100% means that none of the ticks has laid any fertile eggs; 0% means that all the eggs are fertile.

Row | Compound | efficacy [1] | log P [2] | efficacy ([3]; 100 g/ha) | efficacy [4] | efficacy (kill in %) [5] | efficacy (kill in %) [6] | efficacy (kill in %) [7] | efficacy (laying of fertile eggs) [8] | % efficacy ([1]; SPODFR, 0.8 g/ha, 7 dat) | % efficacy ([1]; SPODFR, 4 g/ha, 7 dat) | % efficacy (mortality) at a single application rate at 0.8 g/ha ([1]; Spodoptera frugiperda, 168 h, SPODFR, 0.8 g/ha, 7 dat) | % efficacy (mortality) at a single application rate at 4 g/ha ([1]; Spodoptera frugiperda, 168 h, SPODFR, 4 g/ha, 7 dat) | chromatographic logP ([2]; reversed-phase C18 HPLC column, pH 2.7, HPLC) | efficacy ([3]; 20 g/ha)
1 | CCn1c(C(=O)NC(c2cc(Cl)c(F)c(Cl)c2F)C(F)(F)F)cc2cc(C(=O)NC3(C(N)=S)CC3)c(Cl)cc21 (single isomer, unassigned) [I-17] | 100% | 4.27; | 100% | 100% | 100% | 80% | 90% | 100% |  |  |  |  |  | 
2 | CCn1c(C(=O)NC(c2cc(Cl)c(F)c(Cl)c2F)C(F)(F)F)cc2cc(C(=O)NC3(C(N)=S)CC3)c(Cl)cc21 (single isomer, unassigned) [I-18] | 100% | 4.27; | 100% | 100% | 100% | 100% | 100% | 100% | 100% | 100% |  |  |  | 
3 | CCn1c(C(=O)NC(c2cc(Cl)c(F)c(Cl)c2F)C(F)(F)F)cc2cc(C(=O)NC3(C(N)=S)CC3)c(Cl)cc21 (stereo not drawn) [I-01, N5-(1-Carbamothioylcyclopropyl)-6-chloro-N2-[1-(3,5-dichloro-2,4-difluorophenyl)-2,2,2-trifluoroethyl]-1-ethylindole-2,5-dicarboxamide] | 100% |  | 100% | 100% | 100% | 100% | 100% | 100% |  |  | 100% | 100% | 4.25 | 
4 | CCn1c(C(=O)NC(c2cc(Cl)c(F)c(Cl)c2)C(F)(F)F)cc2cc(C(=O)NC3(C(N)=S)CC3)c(Cl)cc21 (stereo not drawn) [I-02] | 100% | 4.04 | 100% | 100% | 100% | 100% | 100% | 100% | 100% | 100% |  |  |  | 
5 | CCn1c(C(=O)NC(c2ccc(F)c(Br)c2)C(F)(F)F)cc2cc(C(=O)NC3(C(N)=S)CC3)c(Cl)cc21 (stereo not drawn) [I-06] | 100% | 3.64 | 100% | 100% |  |  |  |  | 100% | 100% |  |  |  | 
6 | Cn1c(C(=O)NC(c2cc(Cl)c(F)c(Cl)c2F)C(F)(F)F)cc2cc(C(=O)NC3(C(N)=S)CC3)c(Cl)cc21 (stereo not drawn) [I-08] | 100% | 3.94 | 100% | 100% | 100% |  | 100% | 100% | 100% | 100% |  |  |  | 
7 | CCn1c(C(=O)NC(c2cccc(Cl)c2F)C(F)(F)F)cc2cc(C(=O)NC3(C(N)=S)CC3)c(Cl)cc21 (stereo not drawn) [I-11] | 100% | 3.69 | 100% | 100% | 100% |  |  | 100% |  |  |  |  |  | 
8 | C#CCn1c(C(=O)NC(c2cc(Cl)c(F)c(Cl)c2F)C(F)(F)F)cc2cc(C(=O)NC3(C(N)=S)CC3)c(Cl)cc21 (stereo not drawn) [I-12] | 100% | 3.94 | 100% |  | 100% | 100% | 100% | 100% | 100% | 100% |  |  |  | 
9 | C#CCn1c(C(=O)NC(c2cc(Cl)c(F)c(Cl)c2)C(F)(F)F)cc2cc(C(=O)NC3(C(N)=S)CC3)c(Cl)cc21 (stereo not drawn) [I-14] | 100% | 3.81 | 100% | 100% |  |  |  |  |  |  |  |  |  | 
10 | Cn1c(C(=O)NC(c2cc(Cl)c(F)c(Cl)c2)C(F)(F)F)cc2cc(C(=O)NC3(C(N)=S)CC3)c(Cl)cc21 (stereo not drawn) [I-15] | 100% | 3.76 |  | 90% |  |  |  |  | 83% | 100% |  |  |  | 100%
11 | C#CCn1c(C(=O)NC(c2cc(Cl)c(Cl)c(Cl)c2)C(F)(F)F)cc2cc(C(=O)NC3(C(N)=S)CC3)c(Cl)cc21 (stereo not drawn) [I-21] | 100% | 4.09 | 100% | 100% |  |  |  |  | 100% | 100% |  |  |  | 
12 | CCn1c(C(=O)NC(c2cc(F)cc(F)c2)C(F)F)cc2cc(C(=O)NC3(C(N)=S)CC3)c(Cl)cc21 (stereo not drawn) [I-23] | 83% | 3.07 | 100% | 100% | 100% |  | 90% | 100% |  |  |  |  |  | 
13 | CCn1c(C(=O)NC(c2ccc(Cl)c(Cl)c2)C(F)F)cc2cc(C(=O)NC3(C(N)=S)CC3)c(Cl)cc21 (stereo not drawn) [I-25] | 100% | 3.54 | 100% | 100% | 100% |  | 100% | 100% |  |  |  |  |  | 
14 | CCn1c(C(=O)NC(c2cc(Cl)c(F)c(Cl)c2F)C(F)F)cc2cc(C(=O)NC3(C(N)=S)CC3)c(Cl)cc21 (stereo not drawn) [I-28] | 100% | 3.90 | 100% | 100% |  |  |  |  |  |  |  |  |  | 
